Where “and” joins values, the source holds several entries; their conditions need not be identical. Equal entries are not always repeated. Where two headings read alike, the source gives them in different places. One block for each molecule: values may come before it.
What was measured:
[1] = test system: A2780; assay: Growth inhibition (sulforhodamine B assay), single agents and combination; type: cell-based; conditions: Homo sapiens, read-out: 50% Inhibitory Concentrations (IC50) at 72 h
Procedure: The following human ovarian carcinoma cell lines were tested: A2780 was obtained from Dr. R. F. Ozols (National Cancer Institute, Bethesda, Md., USA); IGROV-1 was obtained from Dr. J. Benard (Villejuif, France); OVCA432 was obtained from Dr. R. C. Knapp (Boston, Mass., USA); OAW42 and SKOV-3 were purchased from ATCC (Rockville, Md., USA). A2780/HPR, a 4-HPR— resistant ovarian carcinoma cell line, was obtained in our laboratory by continuous exposure of A2780 cells to increasing concentrations of 4-EPR as previously described (Appierto et al., Br. J. Cancer, 2001, 84:1528–1534; Prinetti et al., J. Biol. Chem., 2003, 278:5574–5583). Briefly, cells surviving 60 transplants in 4-HPR —containing medium (3 transplants at 1 μM, 11 transplants at 2 μM, 8 transplants at 3 μM, and 38 transplants at 5 μM) were cloned by limiting dilution. […]
For the growth inhibition assays, cells were seeded at a density of 3500 cells per well in 96 cluster tissue culture plates, and treated 24 hr after seeding with different concentrations of 4-oxo-4-HPR or 4-HPR. […] The survival of treated cells was calculated for the various drug concentrations as percentage of the survival of control cells. […]
Studies were performed to assess whether 4-oxo-4-HPR potentiates the tumor growth inhibitory effects of 4-HPR. […] The fractional survival (f) after 3 days of treatment was calculated for each experimental condition. […]

[2] = test system: A2780/HPR; assay: as above; type: cell-based, human; conditions: for Survival (% control cells): single experiments
Procedure: (§1) The following human ovarian carcinoma cell lines were tested: A2780 was obtained from Dr. R. F. Ozols (National Cancer Institute, Bethesda, Md., USA); IGROV-1 was obtained from Dr. J. Benard (Villejuif, France); OVCA432 was obtained from Dr. R. C. Knapp (Boston, Mass., USA); OAW42 and SKOV-3 were purchased from ATCC (Rockville, Md., USA). A2780/HPR, a 4-HPR— resistant ovarian carcinoma cell line, was obtained in our laboratory by continuous exposure of A2780 cells to increasing concentrations of 4-EPR as previously described (Appierto et al., Br. J. Cancer, 2001, 84:1528–1534; Prinetti et al., J. Biol. Chem., 2003, 278:5574–5583). Briefly, cells surviving 60 transplants in 4-HPR —containing medium (3 transplants at 1 μM, 11 transplants at 2 μM, 8 transplants at 3 μM, and 38 transplants at 5 μM) were cloned by limiting dilution. […] Therefore, A2780/HPR cells were continuously maintained in 5 μM 4-HPR and seeded without 4-HPR in all the experiments performed to test their sensitivity to 4-oxo-4-HPR.
(§2) The following human breast tumor cell lines, obtained from Dr. R. Sutherland (Garvan Institute, Sydney, Australia) were tested: T-47D, BT-20 and MCF-7. The following human neuroblastoma cell lines, purchased from ATCC, were tested: SK-N-BE, SK-N-SH, SK-N-MC, and GI-LI-N. All cell lines were grown in monolayer, in medium containing 10% fetal bovine serum (Invitrogen) in 5% CO2 at 37° C. The medium for A2780, A2780/HPR, IGROV-1, OVCA432, SKOV-3, T-47D, BT-20, MCF-7, GI-LI-N and SK-N-BE cells was RPMI 1640 (Cambrex, Verviers, Belgium) and the medium for OAW42, SK-N-MC and SK-N-SH cells was EMEM (ATCC).
(§3) For the growth inhibition assays, cells were seeded at a density of 3500 cells per well in 96 cluster tissue culture plates, and treated 24 hr after seeding with different concentrations of 4-oxo-4-HPR or 4-HPR. 4-oxo-4-HPR was dissolved in absolute ethanol and 4-HPR (obtained from Dr. J. A. Crowell —NCI Bethesda, Md., USA) was dissolved in Me2SO. […] Control cultures received the same amount of ethanol or Me2SO as the treated cultures. 72 hr after treatment cell number was estimated by using the sulforhodamine B assay according to Monks et al., (J. Natl. Cancer, 1991, 11: 757–766). The survival of treated cells was calculated for the various drug concentrations as percentage of the survival of control cells. The antiproliferative activity of 4-oxo-4-HPR and 4-HPR in each cell line, was tested in three separate experiments and the average values ±SD are reported in FIGS. 2, 3, and 4.
(§4) The antiproliferative effect of the combination of the two drugs, administered at one single dose, was also tested in other ovarian carcinoma cell lines and in breast tumor cell lines. The type of interaction between 4-HPR and 4-oxo-4-HPR was assessed by the method of Drevinko et al., as described in Cancer Biochem. Biophys., 1976, 1:187–195. For this evaluation the drugs were assumed to provide independent effects. The combination index (CI) was calculated as follows: survival fraction (SF) of the combination of 4-HPR+4-oxo-4-HPR divided by (SF 4-HPR×SF 4-oxo-4-HPR). The results for CI are defined as follows: CI=1 indicates an additive effect, CI<1 indicates a supra-additive effect and CI>1 indicates a sub-additive effect.

[3] = test system: IGROV-1; assay: as above; type: cell-based, human
Procedure: as §1, §2, §3, §4

[4] = test system: OVCA432; assay: as above; type: cell-based, human
Procedure: as §1, §2, §3, §4

[5] = test system: BT-20; assay: as above; type: cell-based, human
Procedure: as §2, §3, §4

[6] = test system: MCF-7; assay: as above; type: cell-based, human; conditions: for IC50: Homo sapiens, read-out: 50% Inhibitory Concentrations (IC50) at 72 h; for Survival (% control cells): single agent 1 μM
Procedure: as §2, §3, §4

[7] = test system: T-47D; assay: as above; type: cell-based, human; conditions: for IC50: Homo sapiens, T47D, read-out: 50% Inhibitory Concentrations (IC50) at 72 h; for IC50 / Survival (% control cells): 72 h; for Survival (% control cells): single agent 1 μM
Procedure: as §2, §3, §4

[8] = test system: SW626; assay: Antiproliferative effect, single agents and combination; type: cell-based, human; conditions: single agent 1 μM, 72 h, single experiments
Procedure: as §3
as §4, with “For this evaluation the drugs were assumed to provide independent effects.” left out, “The results for CI are defined as follows: CI=1 indicates an additive effect, CI<1 indicates a supra-additive effect and CI>1 indicates a sub-additive effect.” left out

[9] = IGROV-1; single agent 1 μM; 72 h; single experiments
[10] = OVCA432; single agent 1 μM; 72 h; single experiments

Structure (SMILES): CC1=C(/C=C/C(C)=C/C=C/C(C)=C/C(=O)Nc2ccc(O)cc2)C(C)(C)CCC1=O [4-oxo-4-HPR, 4-oxo-N-(4-hydroxyphenyl)retinamide]
- IC50 ([1]; A2780, 72 h): 0.6 µM
- Survival (% control cells) ([2]; A2780/HPR, 4-oxo-4-HPR 0.3 μM, 72 h): 96 % control cells and 84 % control cells and 71 % control cells
- tumor cell survival (FIG. 2), in words ([2]; A2780/HPR, 72 hr, 0.3 to 10 μM): highly effective
- IC50 ([3]; Homo sapiens, IGROV-1, 72 h, read-out: 50% Inhibitory Concentrations (IC50) at 72 h): 2 µM
- Survival (% control cells) [3, 9]: 96 % control cells and 76 % control cells
- IC50 ([4]; Homo sapiens, OVCA432, 72 h, read-out: 50% Inhibitory Concentrations (IC50) at 72 h): 2.5 µM
- Survival (% control cells) [4, 10]: 98 % control cells and 102 % control cells
- tumor cell survival (FIG. 3), compared with 4-HPR, in words ([5]; BT-20; 72 hr): more potent than 4-HPR
- Survival (% control cells) ([5]; BT-20; single agent 1 μM; 72 h): 70 % control cells
- IC50 ([5]; Homo sapiens, BT-20, 72 h, read-out: 50% Inhibitory Concentrations (IC50) at 72 h): 2 µM
- IC50 ([6]; MCF7, 72 h): 1.5 µM
- tumor cell survival (FIG. 3), compared with 4-HPR, in words ([6]; MCF-7, 72 hr): more potent than 4-HPR
- Survival (% control cells) ([6]; MCF-7, 72 h): 56 % control cells
- IC50 [7]: 2.5 µM
- tumor cell survival (FIG. 3), compared with 4-HPR, in words ([7]; T-47D, 72 hr): similarly effective
- Survival (% control cells) ([7]; T-47D): 94 % control cells
- Survival (% control cells) [8]: 90 % control cells and 98 % control cells

- IC50 ([1]; A2780, 72 h, calculated from graphs): 1.5 µM
- IC50 ([2]; Homo sapiens, A2780/HPR (4-HPR-resistant), 72 h, read-out: 50% Inhibitory Concentrations (IC50) at 72 h): 8 µM
- IC50 ([5]; Homo sapiens; BT-20; 72 h; read-out: 50% Inhibitory Concentrations (IC50) at 72 h): 7 µM
- IC50 ([6]; MCF7, MCF-7, 72 h): 3 µM
- IC50 ([7]; T-47D): 4 µM
Structure (SMILES): CC1=C(/C=C/C(C)=C/C=C/C(C)=C/C(=O)Nc2ccc(O)cc2)C(C)(C)CCC1 [4-HPR, N-(4-hydroxyphenyl)retinamide, reference compound]
- Survival (% control cells) ([2]; A2780/HPR, 4-HPR 5 μM, 72 h): 81 % control cells and 89 % control cells
- IC50 ([3]; Homo sapiens; IGROV-1; 72 h; read-out: 50% Inhibitory Concentrations (IC50) at 72 h): 5 µM
- Survival (% control cells) [3, 9]: 97 % control cells and 91 % control cells
- IC50 ([4]; Homo sapiens; OVCA432; 72 h; read-out: 50% Inhibitory Concentrations (IC50) at 72 h): 8 µM
- Survival (% control cells) [4, 10]: 115 % control cells and 105 % control cells
- Survival (% control cells) ([5]; BT-20; single agent 1 μM; 72 h): 89 % control cells
- Survival (% control cells) ([6]; MCF-7, 72 h): 86 % control cells
- Survival (% control cells) ([7]; T-47D): 90 % control cells
- Survival (% control cells) [8]: 96 % control cells and 98 % control cells
